Measurements from patent US6492360B1, “Phthalazine derivatives phosphodiesterase 4 inhibitors” (Zambon Group S.p.A., priority 1998, dated 2002).

Tests used:
PDE 5 = target: T1, PDE 5 (Homo sapiens, UniProt O76074); assay: PDE 5 enzyme inhibition (SPA); assay type: biochemical; settings: 10^−6 M; PDE 5 from human platelets; cGMP
T1 construct: The fractions containing the enzymatic activities (PDE 3 or PDE 5) were pooled; from tissue; host or cells: human platelets from platelet rich plasma of healthy volunteers
Procedure: (§1) a) Human Platelet Preparation
(§2) Human platelets were prepared from platelet rich plasma (PRP) obtained from healthy volunteers. The PRP was centrifuiged at 2,200 rpm for 15 minutes at 4° C. and the pellet was suspended in lysis solution (15 ml; 155 mM NH4Cl, 10 mM KHCO3 and 0.1 mM Na2EDTA, pH=7.4) and incubated for 10 minutes on ice-bath to remove the erythrocyte contamination. After centrifugation at 1,400 rpm for 10 minutes at 4° C., platelets were suspended in 10 ml of […], 5 mM KCl, 1 mM MgSO4, 10 mM glucose, 10 mM HEPES (pH 7.4) and 0.05 U/ml of hirudin, and stored at −20° C. until homogenisation. Platelets were thawed and 50 ml of 20 mM TRIS (pH=6.5) containing 5 mM β-mercapto-ethanol, 2 mM EDTA, 50 mM sodium acetate and 50 μM PMSF (homogenisation buffer) were added. The platelet suspension was then homogenised by a Polytron homogeniser (Polytron PT 1200) for 20 seconds. The homogenate was centrifuged at 14,500 rpm for 20 minutes at 4° C., and the supernatant was applied to an UNO Q12 column (Bio-Rad). The PDE 3 and PDE 5 were eluted by sodium acetate linear gradient from 0.05M to 1M using a flow rate of 4.5 ml/minutes. The fractions containing the enzymatic activities (PDE 3 or PDE 5) were pooled, dialysed against water and concentrated 10 times by ultrafiltration. The PDE 3 and PDE 5 fractions were stored at −20° C. in the presence of ethylene glycol (30% v/v) until use.
(§3) b) PDE 3 and PDE 5 Activity Assay
(§4) The enzyme activity was evaluated with a Scintillation Proximity Assay (SPA) kit (Amersham). The enzymatic reaction was performed in a final volume of 100 μl of TRIS/HCl buffer (50 mM, pH7.5), MgCl2 (8.3 mM), EGTA (1.7 mM), cAMP (for PDE 3 assay) or cGMP (for PDE 5 assay) (1 μM), [^3H]cAMP or [^3H]cGMP (10 μl ), and 10 μl of the compounds of the invention or vehicle. The reaction was started by adding the enzyme (1.0 μg) and incubated for 40 minutes at 30° C. SPA beads (50 μl) containing 18 mM zinc sulphate were added to stop the reaction and after 20 minutes at room temperature the radioacticity was measured using a scintillation counter.
(§5) The compounds were tested at 10^−6M and the results are expressed as percent of inhibition.

PDE 3 = target: T2, PDE 3 (Homo sapiens, UniProt Q14432); assay: PDE 3 enzyme inhibition (SPA); assay type: biochemical; settings: 10^−6 M; PDE 3 from human platelets; cAMP
T2 construct: The fractions containing the enzymatic activities (PDE 3 or PDE 5) were pooled; from tissue; host or cells: human platelets from platelet rich plasma of healthy volunteers
Procedure: as §1, §2, §3, §4, §5

[1] = tested on: TNFα release from human monocytes; assay: TNFα release inhibition in LPS-stimulated monocytes; assay type: cell-based; settings: Monocyte, LPS 1 ng/ml, 16 hours, ELISA
Procedure: a) Human Monocyte Isolation
The monocytes were isolated from peripheral blood of healthy volunteers according to the procedure of Schreek L. et al. (J. Natl. Cancer Inst., 1964, 32, 507). The monocyte and lymphocyte population was isolated by Ficoll gradient centrifugation, and the cells diluted at a density of 2.5×10^6 cells/ml in RPMI1640 incubation medium containing 1% heat-inactivated foetal calf serum, penicillin (100 U/ml) and streptomycin (100 μg/ml) were plated in 24-wells plates (1 ml/well) and left to adhere for 1 hour at 37° C. with 5% CO2. Non-adherent lymphocytes were removed by aspiration and the monocytes adhered to the plate were used in the next step.
The TNFα release from human monocytes was measured according to the method of Barnette M. et al. (Biochemical Pharmacology, 1996, 51, 949). The monocytes were incubated for 1 hour with 1 ml of RPMI1640 incubation medium (1% beat-inactivated foetal calf serum, 100 U/ml penicillin and 100 μg/ml streptomyc in) containing different concentrations of the products according to the present invention or the vehicle for the controls. The TNFα release from monocytes was induced by adding 1 ng/ml of LPS (lipopolysaccharide from E. Coli) and after 16 hours of incubation at 37° C., 5% CO2, the incubation medium was removed, centrifuged and the supernatant stored at −80° C. until TNFα assay by ELISA kit (Amersham). The results are expressed as IC50 following the same calculation explained in example 147.

PDE 4 = PDE 4 enzyme inhibition (SPA); assay type: biochemical; settings: PDE 4 purified from human PMNs; cAMP 1 μM
Procedure: a) Human Polymorphonuclear Leukocyte Isolation
The polymorphonuclear leukocytes (PMNs) were isolated from peripheral blood of healthy volunteers according to Boyum A. (Scand. J. Immunol., 1976, 5th suppl., 9). Briefly, the PMNs were purified by Ficoll-Paque gradient centrifugation followed by sedimentation on dextran and the erythrocyte contamination was eliminated by hypotonic lysis.
b) PDE 4 Enzyme Purification
The human PMNs were suspended in TRIS/HCl buffer (10 mM, pH 7.8) containing MgCl2 (5 mM), EGTA (4 mM), mercaptoethanol (5 mM), TRITON-X100 (1%), pepstatin A (1 μM), PMSF (100 μM) and leupeptin (1 μM), and homogenised by Polytron homogeniser. The homogenate was centrifuged at 25,000×g for 30 minutes at 4° C. and the PDE 4 enzyme was purified by ion exchange chromatography using the FPLC technique according to Schudt C. et al. (Naunyn-Schmidberg's Arch. Pharmacol., 1991, 334, 682). The supernatant was seeded on a UNO Q12 column (Bio-Rad) and the enzyme was eluted by sodium acetate linear gradient from 50 mM to 1M using a flow rate of 4.5 ml/minutes. The fractions containing enzymatic activity were pooled, dialysed against water and concentrated. The PDE 4 enzyme was stored at, −20° C. in the presence of ethylene glycol (30% v/v) until the use.
The enzyme activity was evaluated with a Scintillation Proximity Assay (SPA) kit (Amersham). The enzymatic reaction was performed in a final volume of 100 μl of TRIS/HCl buffer (50 mM, pH 7.5), MgCl2 (8.3 mM), EGTA (1.7 mM), cAMP (1 μM) and [^3H]cAMP (˜100.000 dpm) as tracer. The compounds of the invention, the reference ones or the vehicle were added at different concentrations. As reference compounds 6,7-dimethoxy-4-pyridin-4-yl-methyl)2H-phthalazin-1-one (reference 1) and 6,7-dimethoxy-4-(piperidin-4-yl-methyl)2H-phthalazin-1-one (reference 2) embraced by the general formula of the patent application EP-0 722 936 (in the name of Eisai) were used. The reaction was started by adding 1.5 μg protein and incubated for 40 minutes at 30° C. SPA beads (50 μl) containing 18 mM zinc sulphate were added to stop the reaction and after 20 minutes at room temperature the radioactivity was measured using a scintillation counter.
The IC50 value refers to the nanomolar concentration of the compound required to inhibit cyclic nucleotide hydrolysis by 50%, and it was calculated by non-linear regression analysis.

T2 sequence (Q14432 whole entry): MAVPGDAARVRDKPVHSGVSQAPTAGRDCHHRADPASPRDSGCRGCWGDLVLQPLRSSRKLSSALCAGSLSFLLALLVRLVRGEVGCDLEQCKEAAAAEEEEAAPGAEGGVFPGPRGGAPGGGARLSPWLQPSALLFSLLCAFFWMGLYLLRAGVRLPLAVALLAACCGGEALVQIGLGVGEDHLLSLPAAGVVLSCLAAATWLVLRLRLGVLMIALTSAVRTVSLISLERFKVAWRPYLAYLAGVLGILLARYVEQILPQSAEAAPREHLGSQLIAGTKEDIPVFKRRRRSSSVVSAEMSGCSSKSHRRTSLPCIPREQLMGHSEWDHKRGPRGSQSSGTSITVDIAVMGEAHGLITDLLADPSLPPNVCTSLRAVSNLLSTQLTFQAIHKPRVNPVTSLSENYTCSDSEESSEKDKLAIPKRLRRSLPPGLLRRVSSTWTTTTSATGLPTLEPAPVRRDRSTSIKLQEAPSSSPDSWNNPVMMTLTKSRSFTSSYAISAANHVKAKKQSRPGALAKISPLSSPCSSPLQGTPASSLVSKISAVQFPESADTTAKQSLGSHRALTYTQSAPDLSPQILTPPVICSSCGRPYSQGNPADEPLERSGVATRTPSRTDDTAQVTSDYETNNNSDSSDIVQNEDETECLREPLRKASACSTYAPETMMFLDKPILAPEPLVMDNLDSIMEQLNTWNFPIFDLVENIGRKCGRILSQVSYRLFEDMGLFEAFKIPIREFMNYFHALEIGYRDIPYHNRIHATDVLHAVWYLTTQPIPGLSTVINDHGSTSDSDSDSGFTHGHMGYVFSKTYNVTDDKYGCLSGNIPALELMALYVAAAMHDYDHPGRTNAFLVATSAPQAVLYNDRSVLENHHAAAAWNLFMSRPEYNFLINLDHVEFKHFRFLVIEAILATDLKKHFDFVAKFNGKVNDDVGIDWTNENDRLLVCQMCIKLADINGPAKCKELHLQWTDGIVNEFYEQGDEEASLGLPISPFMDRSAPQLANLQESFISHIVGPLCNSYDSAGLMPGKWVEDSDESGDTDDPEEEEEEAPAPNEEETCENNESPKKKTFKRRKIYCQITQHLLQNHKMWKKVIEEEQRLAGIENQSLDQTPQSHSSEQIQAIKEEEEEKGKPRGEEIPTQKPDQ

SMILES | inhibition at 1 µM (PDE 5) [%] | inhibition at 1 µM (PDE 3) [%] | IC50 [1] [nM] | IC50 (PDE 4) [nM]
COc1ccc2c(Cc3c(Cl)cncc3Cl)nnc(N3CCOCC3)c2c1 [Compound 38, 1(3,5-Dichloro-pyridin-4-ylmethyl)-6-methoxy-4-morpholin-4-yl-phthalazine] | 1 | -2 | 62 ± 17 | 132 ± 30
COc1ccc2c(Cc3c(Cl)cncc3Cl)nnc(N3CCCC3)c2c1 [Compound 49, 1-(3,5-Dichloropyridin-4-ylmethyl)-6-methoxy-4-pyrrolidin-1-yl-phthalazine] | 10 | -10 | 9.1 ± 2.9 | –
COc1ccc2c(Cc3c(Cl)cncc3Cl)nnc(CN3CCOCC3)c2c1 [Compound 56, 1-(3,5-Dichloro-pyridin-4-ylmethyl)-6-methoxy-4-morpholin-4-ylmethyl-phthalazine] | 14 | -9 | 260 ± 44 | 364 ± 67
COc1ccc2c(Cc3c(Cl)cncc3Cl)nnc(-c3ccccc3)c2c1 [Compound 5, 1-(3,5-Dichloro-pyridin-4-ylmethyl)-6-methoxy-4-phenyl-phthalazine] | 21 | 7 | 46 ± 15 | 37 ± 6
COc1ccc2c(c1)CN(C(C)=O)N=C2Cc1c(Cl)cncc1Cl [Compound 8, 1-[4-(3,5-Dichloro-pyridin-4-ylmethyl)-7-methoxy-1H-phthalazin-2-yl]-ethanone] | 35 | 12 | 48 ± 14 | 51 ± 7
COc1ccc2c(Cc3c(Cl)cncc3Cl)nnc(-n3cncn3)c2c1 [Compound 29, 1-(3,5-Dichloro-pyridin-4-ylmethyl)-6-methoxy-4-[1,2,4]triazol-1-yl-phthalazine] | 1 | -4 | 73 ± 21 | 241 ± 73
